# Assay results reported in PubChem BioAssay (NCI).
#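 Five compound concentrations were applied to cells in 96-well plates for 48 hours; endpoints were derived by simple linear interpolation of the resulting dose-response curve. GI50 marks 50% less growth. TGI is the concentration that stops growth completely.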
# System: SNB-19 CNS
# Assay: NCI tumour cell line growth inhibition, 48 h
Compound,TGI,GI50
[N-]=[N+]=NC(c1ccccc1)(c1ccccc1)c1ccccc1,39.5 µM,
CC1CN(C)c2ccccc2N=C1NN (centres undefined),> 100 µM,
C(=C(c1ccc(OC2CCCCO2)cc1)c1ccc(OC2CCCCO2)cc1)c1ccccc1 (centres undefined),2.54 µM,
COc1ccc(CN2C(=O)/C(=C\c3cc(OC)c(OC)c(OC)c3)c3ccccc32)cc1,3.56 µM,1.81 µM
N[C@@H](CCC(=O)NCP(=O)(O)O)C(=O)O,> 100 µM,
CCOP(=O)(OCC)C(F)(F)c1ccc(CC(NC(=O)OC(C)(C)C)C(=O)O)cc1 (centres undefined),> 10 µM,
COc1ccc(-c2[nH]c3c4c(nc5c(c24)C(=O)CC(C)(C)C5)CC(C)(C)C3)cc1,> 100 µM,
CCC(=O)NCC1CCCN2CCCCC12 (centres undefined),> 100 µM,
NC(=O)C(=Cn1c(=S)[nH]c2ccc([N+](=O)[O-])cc21)C(N)=O,> 100 µM,
O=C(C1OC1c1ccc(Br)cc1O)C12CC3CC(CC(C3)C1)C2 (centres undefined),> 100 µM,
Cc1ccc(N(Cc2ccccc2)Cc2ccccc2)cc1,> 100 µM,
c1ccc2c3[nH]c(c2c1)=Nc1ccc(cc1)-c1nc2cc(ccc2o1)N=c1[nH]c(c2ccccc12)=Nc1ccc2nc(oc2c1)-c1ccc(cc1)N=3,> 100 µM,
Nc1nc(-c2ccccc2)nc2oc(-c3cccs3)nc12,> 100 µM,
S=C(N/N=C(/c1ccccc1)c1ccccn1)N(Cc1ccccn1)Cc1ccccn1,2.26 µM,
O=c1[nH]c(=S)[nH]c2c1C(c1ccc([N+](=O)[O-])cc1)c1c([nH]c(=S)[nH]c1=O)O2,> 100 µM,
Cn1c(=O)c2c(nc3n2CC(C(=O)O)N3)n(C)c1=O (centres undefined),> 100 µM,
Cc1ccc(-c2cc(-c3ccco3)c(C#N)c(=S)n2C2OC(CO)C(O)C(O)C2O)cc1 (centres undefined),> 100 µM,
Cc1oc2c(cc(O)c3cc(O)ccc32)c2cccc1-2,> 100 µM,
O=C(Cc1ccc(O)c(O)c1)NCc1c[nH]c2ccccc12,> 100 µM,
COc1ccc(-n2c(C)nc3ccc(NC(=S)Nc4ccccc4)cc3c2=O)cc1,> 100 µM,
O=C(NCc1ccccc1)c1n[nH][nH]c1=O,> 100 µM,

# System: SR leukemia
# Assay: NCI tumour cell line growth inhibition, 48 h
row,Compound,TGI
1,CCOC(=O)c1c(CN2CCCC2)n(-c2ccccc2)c2cc(Br)c(O)cc12,42.8 µM
2,COc1cccc(Nc2nc(-c3cccs3)nc3cc(OC)c(OC)cc23)c1,76.9 µM
3,Nn1c(-c2ccccc2)n[nH]c1=O,> 100 µM
4,Nn1c(Nc2ccc(S(=O)(=O)Nc3ncccn3)cc2)nnc(/C=C/c2c(O)ccc3ccccc23)c1=O,66.8 µM
5,Cc1cc(-c2nc3ccc(F)cc3s2)ccc1NC(=O)[C@H](C)N,5.65 µM
6,C=CC1(CC/C(=C\[N+](=O)[O-])c2ccc(OC)c(OC)c2)OCC(C)(C)CO1,29.4 µM
7,Cc1cc(C)nc(NS(=O)(=O)c2ccc(NC(=O)c3ccc4nc5ccccc5c(Nc5ccc(S(N)(=O)=O)cc5)c4c3)cc2)n1,> 100 µM
8,Nc1c(-c2ccc(Cl)c(Cl)c2)c2ccc([N+](=O)[O-])cc2c(=O)n1-c1nc2ccccc2s1,> 100 µM
9,CC1(C(=O)O)CCC2(C)CCC3(C)C(=CC(=O)C4C5(C)CCC(O)C(C)(C)C5CCC43C)C2C1 (centres undefined),61 µM
10,NS(=O)(=O)c1nnc(NC(=O)Nc2ccc(Cl)c(Cl)c2)s1,60.6 µM
11,COC(=O)c1c(C)nc2c1cc(O)c1[nH]c(C)c(C)nc12,> 100 µM
12,Cn1c2ccc3cc2c(=S)c2cc(ccc21)OCCOCCOCCOCCOCCOCCO3,> 10 µM
13,O=[N+]([O-])c1cc(C=NC23CC4CC(CC(C4)C2)C3)ccc1Cl,12.9 µM
14,COc1cc(S(=O)(=O)Nc2nc(-c3ccc(N4C(=O)C(CC(=O)O)SC4c4cccs4)cc3)cs2)ccc1Cl (centres undefined),79.1 µM
15,Oc1ccccc1CNCc1nc2ccccc2[nH]1,> 100 µM
16,COc1ncc(/C=C2\OC(=O)c3ccccc32)c(OC)n1,> 100 µM
17,CC(=O)Nn1c(=S)[nH]c2ccccc21,> 100 µM
18,CCCCOC(=O)Nc1ccc(S(=O)(=O)Nc2ccccc2Cl)cc1,26.8 µM
19,O=C1CCC2(c3ccc(Cl)cc3)Nc3ccncc3N12 (centres undefined),> 10 µM
20,Nc1ncnc2c1[nH]c(=O)n2-c1ccccc1,> 100 µM
21,N[C@@H](CCC(=O)NCP(=O)(O)O)C(=O)O,> 100 µM
22,COc1ccc(-c2[nH]c3c4c(nc5c(c24)C(=O)CC(C)(C)C5)CC(C)(C)C3)cc1,92.1 µM
23,c1ccc2c3[nH]c(c2c1)=Nc1ccc(cc1)-c1nc2cc(ccc2o1)N=c1[nH]c(c2ccccc12)=Nc1ccc2nc(oc2c1)-c1ccc(cc1)N=3,> 100 µM
24,Nc1nc(-c2ccccc2)nc2oc(-c3cccs3)nc12,> 100 µM
25,S=C(N/N=C(/c1ccccc1)c1ccccn1)N(Cc1ccccn1)Cc1ccccn1,43.5 µM
26,Cc1oc2c(cc(O)c3cc(O)ccc32)c2cccc1-2,> 100 µM
27,NC(N)=Nc1ccc(CC(N)NCC(=O)O)cc1 (centres undefined),> 25 µM
28,COc1ccc(-n2c(C)nc3ccc(NC(=S)Nc4ccccc4)cc3c2=O)cc1,> 100 µM

# System: UACC-257 melanoma
# Assay: NCI tumour cell line growth inhibition, 48 h
Compound,TGI,GI50
CCOC(=O)c1c(CN2CCCC2)n(-c2ccccc2)c2cc(Br)c(O)cc12,32.8 µM,
COc1cccc(Nc2nc(-c3cccs3)nc3cc(OC)c(OC)cc23)c1,> 100 µM,
Nn1c(-c2ccccc2)n[nH]c1=O,> 100 µM,
Nn1c(Nc2ccc(S(=O)(=O)Nc3ncccn3)cc2)nnc(/C=C/c2c(O)ccc3ccccc23)c1=O,55.2 µM,
Cc1cc(-c2nc3ccc(F)cc3s2)ccc1NC(=O)[C@H](C)N,11.8 µM,
C=CC1(CC/C(=C\[N+](=O)[O-])c2ccc(OC)c(OC)c2)OCC(C)(C)CO1,26.8 µM,
Cc1cc(Nc2ccc(S(=O)(=O)O)c3cc(S(=O)(=O)O)cc(S(=O)(=O)O)c23)c2ccccc2n1,> 100 µM,
Cc1cc(C)nc(NS(=O)(=O)c2ccc(NC(=O)c3ccc4nc5ccccc5c(Nc5ccc(S(N)(=O)=O)cc5)c4c3)cc2)n1,> 100 µM,
Nc1c(-c2ccc(Cl)c(Cl)c2)c2ccc([N+](=O)[O-])cc2c(=O)n1-c1nc2ccccc2s1,> 100 µM,
CC1(C(=O)O)CCC2(C)CCC3(C)C(=CC(=O)C4C5(C)CCC(O)C(C)(C)C5CCC43C)C2C1 (centres undefined),> 100 µM,
NS(=O)(=O)c1nnc(NC(=O)Nc2ccc(Cl)c(Cl)c2)s1,42 µM,
COC(=O)c1c(C)nc2c1cc(O)c1[nH]c(C)c(C)nc12,> 100 µM,
Cn1c2ccc3cc2c(=S)c2cc(ccc21)OCCOCCOCCOCCOCCOCCO3,> 10 µM,
O=[N+]([O-])c1cc(C=NC23CC4CC(CC(C4)C2)C3)ccc1Cl,39.6 µM,
COc1cc(S(=O)(=O)Nc2nc(-c3ccc(N4C(=O)C(CC(=O)O)SC4c4cccs4)cc3)cs2)ccc1Cl (centres undefined),> 100 µM,
CC(=O)N(C(=O)CC(=O)N1N=C(c2ccccc2)C(N=Nc2ccccc2[N+](=O)[O-])C1=O)c1ccc(Cl)cc1 (centres undefined),> 10 µM,
Oc1ccccc1CNCc1nc2ccccc2[nH]1,> 100 µM,
COc1ncc(/C=C2\OC(=O)c3ccccc32)c(OC)n1,> 100 µM,
CC(=O)Nn1c(=S)[nH]c2ccccc21,> 100 µM,
C[C@]12CCC3C4=C(CCC3C1CCC2=O)C(=O)[C@H]1O[C@H]1C4=O (some centres undefined),34.1 µM,
CCCCOC(=O)Nc1ccc(S(=O)(=O)Nc2ccccc2Cl)cc1,98.4 µM,
Oc1[nH]c2ccccc2c1N=Nc1nc(-c2ccc(Br)cc2)cs1,66.1 µM,
N#CC(Cc1ccccc1)N(CCC1=CCCCC1)C(c1ccccc1)c1ccccc1 (centres undefined),> 100 µM,
C#CCn1c(=O)c2ccccc2n(CC#C)c1=O,> 10 µM,

Compound,TGI,GI50
O=C1CCC2(c3ccc(Cl)cc3)Nc3ccncc3N12 (centres undefined),> 10 µM,
Nc1ncnc2c1[nH]c(=O)n2-c1ccccc1,> 100 µM,
[N-]=[N+]=NC(c1ccccc1)(c1ccccc1)c1ccccc1,31.4 µM,
CC1CN(C)c2ccccc2N=C1NN (centres undefined),> 100 µM,
C(=C(c1ccc(OC2CCCCO2)cc1)c1ccc(OC2CCCCO2)cc1)c1ccccc1 (centres undefined),1.66 µM,
COc1ccc(CN2C(=O)/C(=C\c3cc(OC)c(OC)c(OC)c3)c3ccccc32)cc1,6.67 µM,2.15 µM
N[C@@H](CCC(=O)NCP(=O)(O)O)C(=O)O,> 100 µM,
CCOP(=O)(OCC)C(F)(F)c1ccc(CC(NC(=O)OC(C)(C)C)C(=O)O)cc1 (centres undefined),> 10 µM,
COc1ccc(-c2[nH]c3c4c(nc5c(c24)C(=O)CC(C)(C)C5)CC(C)(C)C3)cc1,> 100 µM,
CCC(=O)NCC1CCCN2CCCCC12 (centres undefined),> 100 µM,
NC(=O)C(=Cn1c(=S)[nH]c2ccc([N+](=O)[O-])cc21)C(N)=O,> 100 µM,
O=C(C1OC1c1ccc(Br)cc1O)C12CC3CC(CC(C3)C1)C2 (centres undefined),> 100 µM,
Cc1ccc(N(Cc2ccccc2)Cc2ccccc2)cc1,> 100 µM,
c1ccc2c3[nH]c(c2c1)=Nc1ccc(cc1)-c1nc2cc(ccc2o1)N=c1[nH]c(c2ccccc12)=Nc1ccc2nc(oc2c1)-c1ccc(cc1)N=3,> 100 µM,
Nc1nc(-c2ccccc2)nc2oc(-c3cccs3)nc12,> 100 µM,
S=C(N/N=C(/c1ccccc1)c1ccccn1)N(Cc1ccccn1)Cc1ccccn1,2.42 µM,
O=c1[nH]c(=S)[nH]c2c1C(c1ccc([N+](=O)[O-])cc1)c1c([nH]c(=S)[nH]c1=O)O2,> 100 µM,
Cn1c(=O)c2c(nc3n2CC(C(=O)O)N3)n(C)c1=O (centres undefined),> 100 µM,
Cc1ccc(-c2cc(-c3ccco3)c(C#N)c(=S)n2C2OC(CO)C(O)C(O)C2O)cc1 (centres undefined),> 100 µM,
Cc1oc2c(cc(O)c3cc(O)ccc32)c2cccc1-2,> 100 µM,
NC(N)=Nc1ccc(CC(N)NCC(=O)O)cc1 (centres undefined),> 25 µM,
O=C(Cc1ccc(O)c(O)c1)NCc1c[nH]c2ccccc12,> 100 µM,
COc1ccc(-n2c(C)nc3ccc(NC(=S)Nc4ccccc4)cc3c2=O)cc1,> 100 µM,
O=C(NCc1ccccc1)c1n[nH][nH]c1=O,> 100 µM,
